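Following 48 hours of exposure in 96-well plates, responses at five concentrations were used to interpolate endpoints linearly. GI50: concentration for 50% inhibition of growth. The concentration for full growth arrest is given as TGI.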
Experiments:
Test in all cases: NCI-60 cell line screen, 48 h
UACC-257 melanoma = tested on: UACC-257 melanoma
786-0 renal = tested on: 786-0 renal
SN12C renal = tested on: SN12C renal
A498 renal = tested on: A498 renal
HL-60(TB) leukemia = tested on: HL-60(TB) leukemia
U251 CNS = tested on: U251 CNS
ACHN renal = tested on: ACHN renal
LOX IMVI melanoma = tested on: LOX IMVI melanoma
OVCAR-4 ovarian = tested on: OVCAR-4 ovarian
IGROV1 ovarian = tested on: IGROV1 ovarian

SMILES	GI50 (UACC-257 melanoma)	TGI (UACC-257 melanoma)	GI50 (786-0 renal)	TGI (786-0 renal)	GI50 (SN12C renal)	TGI (SN12C renal)	GI50 (A498 renal)	TGI (A498 renal)	GI50 (HL-60(TB) leukemia)	TGI (HL-60(TB) leukemia)	GI50 (U251 CNS)	TGI (U251 CNS)	GI50 (ACHN renal)	TGI (ACHN renal)	GI50 (LOX IMVI melanoma)	TGI (LOX IMVI melanoma)	GI50 (OVCAR-4 ovarian)	TGI (OVCAR-4 ovarian)	GI50 (IGROV1 ovarian)	TGI (IGROV1 ovarian)
N[C@@H]1C(=O)N2C(C(=O)OC(c3ccccc3)c3ccccc3)=C(CCl)CS[C@H]12	> 100 µM	> 100 µM	39.3 µM	98.9 µM	41 µM	> 100 µM	> 100 µM	> 100 µM	2.46 µM	> 38.3 µM	29.2 µM	> 78.9 µM	40.2 µM	> 100 µM	24.9 µM	65 µM	44.8 µM	> 100 µM	47.4 µM	> 100 µM
O=C(/C=C/c1ccco1)c1ccc(NCc2nc3ccccc3[nH]2)cc1		23.2 µM		32.5 µM		32 µM		27.5 µM		30.6 µM		23.8 µM		38.4 µM		29.8 µM		56.6 µM		34.1 µM
O=C(O)c1cn(C2CC2)c2cc(N3CCN(C(=O)Nc4nc(-c5ccccc5)cs4)CC3)c(F)cc2c1=O	2.37 µM	7.58 µM	0.592 µM	16.9 µM	0.774 µM	> 100 µM	1.06 µM	7.08 µM	1.62 µM	4.41 µM	0.474 µM	14.1 µM	0.894 µM	7.54 µM	0.281 µM	1.03 µM	2.93 µM	> 100 µM	1.2 µM	> 100 µM
CC1=CC(=O)C(C(C)C)=CC1=Nc1cc(Br)c(O)c(Br)c1	14.7 µM	33.1 µM	5.03 µM	17.8 µM	5.56 µM	18.3 µM	3.81 µM	19.6 µM	3.48 µM	8.5 µM	4.72 µM	19.1 µM	11.6 µM	30.1 µM	5.04 µM	20.4 µM	6.29 µM	19.5 µM	4.68 µM	20.2 µM
CCC/C=C1\CCC(CN(C)C)C1=O (stereo not given)		30.8 µM		7.16 µM		32.7 µM		23.9 µM		31.5 µM		15.6 µM		11.2 µM		20.8 µM		38.6 µM		34.4 µM
O=[N+]([O-])c1ccc(Cl)c(C2CC(c3cccc4ccccc34)=Nc3ccccc3S2)c1 (stereo not given)		> 100 µM		30.4 µM		> 59.4 µM		> 78.9 µM		26.2 µM		65.9 µM		> 100 µM		59.2 µM		> 100 µM		> 100 µM
NC(=O)c1c([N+](=O)[O-])cc(C(F)(F)F)cc1[N+](=O)[O-]		99.8 µM		> 100 µM		> 100 µM		> 100 µM		47.4 µM		> 100 µM		> 100 µM		> 100 µM		> 100 µM		> 100 µM
CCOc1cc(Br)c(C(C)NC(=O)c2cccc(OC)c2)cc1OCC (stereo not given)	22.5 µM	> 100 µM	20.4 µM	> 100 µM	25.2 µM	> 100 µM	0.866 µM	25.5 µM	3.8 µM	> 61.3 µM	11.4 µM	> 100 µM	21.1 µM	> 100 µM	22.8 µM	> 100 µM	13.2 µM	> 93.5 µM	22.3 µM	> 100 µM
CCC(c1ccc(OC)cc1)C(CC)c1ccc(O)c(CN2CCN(C)CC2)c1 (stereo not given)	2.1 µM	4.97 µM	3.4 µM	10.9 µM	5.7 µM	20.9 µM	4.13 µM	16.1 µM	2.62 µM	5.9 µM	2.73 µM	12.2 µM	9.99 µM	22.9 µM	2.48 µM	7.64 µM	7.22 µM	22.4 µM	5.4 µM	18 µM
Cc1cc(-c2ccccc2)nc(Nc2nc3ccccc3o2)n1		> 100 µM		> 100 µM		> 100 µM		> 100 µM		> 100 µM		> 100 µM		> 100 µM		> 100 µM		> 100 µM		> 100 µM
CCOc1ccc2c(c1)[n+]([O-])c(-c1ccc(Br)cc1)c(N)[n+]2[O-]		> 100 µM		> 100 µM		> 100 µM		> 100 µM		> 100 µM		> 100 µM		> 100 µM		> 100 µM		> 100 µM		> 100 µM
